According to patent US6258800A, “Prodrugs of benzofuranylethyl carbamate NK1 antagonists” (Warner-Lambert Company, priority 2000, dated 2001):
Counter-ions that a name gives are not always drawn.

What was measured:
[1] = Aqueous solubility; format: physicochemical; details: water
[2] = Conversion of prodrug to parent compound 1 after IV dosing (plasma HPLC); format: in vivo; details: male Wistar rats; for metabolised at 24 h: rat, n=3, slow IV bolus about 5 mg/kg parent-equivalent, parent compound 1 in plasma up to 24 h; for conversion to parent compound 1 in vivo (in words): IV administration
From the text: Male Wistar rats weighing 244 to 390 g were used in the in vivo experiments. The day before the experiment, the rats were surgically prepared. Rats were anesthetized with ether, and the right jugular vein was cannulated for intravenous dosing and/or systemic sampling. The cannula was exteriorized at the nape of the rat between the shoulder blades. The animals were allowed to recover overnight from surgery and fasted with water ad libitum.
Dosing solutions of the prodrugs (5, 25, 18, 34, 20c, 20d, 20e, and 20f) were prepared separately in 5% dextrose in water (D5W). Compound 20a was dissolved in 5% ethanol in D5W whereas compound 29 was dissolved in 20% ethanol, 20% polyethylene glycol 400 in D5W. Animals were randomly assigned to groups of three. The prodrug solutions were administered intravenously as a slow bolus at about 5 mg/kg parent-equivalent or orally as a gastric gavage at about 15 mg/kg parent-equivalent (Table 1 on Page 10 contains PO data). The cannula was subsequently rinsed with 1 mL D5W. Systemic blood was sampled predose and at selected times up to 24 hours after dosing. Blood samples (0.5 mL) were collected on ice, heparinized, and immediately centrifuged; then plasma was harvested and stored at -20° C. until analysis by HPLC.
The plasma samples were analyzed by validated HPLC assay for the parent compound 1. Plasma (200 μL) was spiked with 18 μL of internal standard ([2-(1H-indol-3-yl)-1-methyl-1-(1-phenyl-ethylcarbamoyl)-ethyl]-carbimic acid 4-ethyl-benzyl ester; 2.5 μM) and 400 μL acetonitrile (ACN) to precipitate protein. The supernatant was transferred to a clean test tube and evaporated to dryness. The residue was reconstituted in 50:50 ACN:water and injected onto the HPLC.
Detailed bioconversion data often prodrugs is found in Table 1 below.

SMILES | solubility ([1]; parent drug) | metabolised at 24 h [2] | conversion to parent compound 1 in vivo (in words) [2] | aqueous solubility (in words) [1] | metabolised at 24 h ([2]; in vivo)
C[C@H](NC(=O)[C@@](C)(Cc1c[nH]c2ccccc12)NC(=O)OCc1cc2ccccc2o1)c1ccccc1 [Compound 1, 2-benzofuranylmethyl [R-(R*,S*)]-[1-(1H-indol-3-ylmethyl)-1-methyl-2-oxo-2-[(1-phenylethyl)amino]ethyl]carbamate, reference compound] | < 1 µg/mL | – | – | – | –
C[C@H](NC(=O)[C@@](C)(Cc1cn(P(=O)(O)O)c2ccccc12)NC(=O)OCc1cc2ccccc2o1)c1ccccc1 [Compound 5, {3-[2-(Benzofuran-2-ylmethoxycarbonylamino)-2-(1-phenyl-ethylcarbamoyl)propyl]-indol-1-yl}-phosphonic acid disodium salt] | – | 11.7 ± 0.84% | – | – | –
C[C@H](NC(=O)[C@@](C)(Cc1cn(C(=O)OCOC(=O)c2ccc(COP(=O)(O)O)cc2)c2ccccc12)NC(=O)OCc1cc2ccccc2o1)c1ccccc1 [Compound 18, 3-[2-(Benzofuran-2-ylmethoxycarbonylamino)-2-(1-phenyl-ethylcarbamoyl)propyl]-indol-1-carboxylic acid phosphonooxymethylbenzoyloxymethyl ester disodium salt] | – | 59.5 ± 21.3% | highest reconversion | – | –
C[C@H](NC(=O)[C@@](C)(Cc1cn(C(=O)OCOC(=O)c2ccc(CN(C)C)cc2)c2ccccc12)NC(=O)OCc1cc2ccccc2o1)c1ccccc1 [Compound 20a, 3-[2-(Benzofuran-2-ylmethoxycarbonylamino)-2-(1-phenyl-ethylcarbamoyl)-propyl]-indole-1-carboxylic acid 4-dimethylaminomethyl-benzoyloxymethyl ester monohydrochloride salt] | – | 86.9 ± 18.6% | higher conversion than the phosphate prodrugs | not water-soluble | –
C[C@H](NC(=O)[C@@](C)(Cc1cn(C(=O)c2ccccc2COP(=O)(O)O)c2ccccc12)NC(=O)OCc1cc2ccccc2o1)c1ccccc1 [Compound 25, {1-Methyl-1-(1-phenyl-ethylcarbamoyl)-2-[1-(2-phosphonooxymethyl-benzoyl)-1H-indol-3-yl]-ethyl}-carbamic acid benzofuran-2-ylmethyl ester disodium salt] | – | 19.9 ± 1.07% | – | – | –
Cc1cc(C)c(C(C)(C)CC(=O)n2cc(C[C@@](C)(NC(=O)OCc3cc4ccccc4o3)C(=O)N[C@@H](C)c3ccccc3)c3ccccc32)c(OP(=O)(O)O)c1 [Compound 34, [2-{1-[3-(2,4-Dimethyl-6-phosphonooxy-phenyl)-3-methylbutyryl]-1H-indol-3-yl}-1-methyl-1-(1-phenylethylcarbamoyl)ethyl]carbamic acid benzofuran-2-ylmethyl ester disodium salt] | – | – | lowest bioconversion in vivo | – | 9.35 ± 4.12%

The next lines start with results.

solubility ([1]; parent drug) | metabolised at 24 h [2] | conversion to parent compound 1 in vivo (in words) [2] | aqueous solubility (in words) [1] | SMILES | metabolised at 24 h ([2]; in vivo)
– | 68 ± 5.2% | comparable reconversion as (20a) | – | C[C@H](NC(=O)[C@@](C)(Cc1cn(C(=O)OCOC(=O)c2ccc(CN3CCN(C)CC3)cc2)c2ccccc12)NC(=O)OCc1cc2ccccc2o1)c1ccccc1 [Compound 20c, 3-[2-(Benzofuran-2-ylmethoxycarbonylamino)-2-(1-phenyl-ethylcarbamoyl)-propyl]-indole-1-carboxylic acid 4-(4-methyl-piperazin-1-methyl)-benzoyloxymethyl ester dihydrochloride salt] | –
– | 64.2 ± 14.3% | comparable reconversion as (20a) | – | C[C@H](NC(=O)[C@@](C)(Cc1cn(C(=O)OCOC(=O)c2ccc(CN3CCN(CCO)CC3)cc2)c2ccccc12)NC(=O)OCc1cc2ccccc2o1)c1ccccc1 [Compound 20d, 3-[2-(Benzofuran-2-ylmethoxycarbonylamino)-2-(1-phenyl-ethylcarbamoyl)-propyl]-indole-1-carboxylic acid 4-[4-(2-hydroxy-ethyl)-piperazin-1-ylmethyl]-benzoyloxymethyl ester dihydrochloride salt] | –
– | 88.5 ± 9.2% | comparable reconversion as (20a) | – | C[C@H](NC(=O)[C@@](C)(Cc1cn(C(=O)OCOC(=O)c2ccc(CN3CCNCC3)cc2)c2ccccc12)NC(=O)OCc1cc2ccccc2o1)c1ccccc1 [Compound 20e, 3-[2-(Benzofuran-2-ylmethoxycarbonylamino)-2-(1-phenyl-ethylcarbamoyl)-propyl]-indole-1-carboxylic acid 4-piperazin-1-ylmethyl-benzoyloxymethyl ester dihydrochloride salt] | –
– | 104 ± 38.2% | comparable reconversion as (20a) | – | C[C@H](NC(=O)[C@@](C)(Cc1cn(C(=O)OCOC(=O)c2ccc(CN(C)CCN(C)C)cc2)c2ccccc12)NC(=O)OCc1cc2ccccc2o1)c1ccccc1 [Compound 20f, 3-[2-(Benzofuran-2-ylmethoxycarbonylamino)-2-(1-phenyl-ethylcarbamoyl)-propyl]-indole-1-carboxylic acid 4-{[(2-dimethylamino-ethyl)-methyl-amino]-methyl}-benzoyloxymethyl ester dihydrochloride salt] | –
